Source: patent US20180125796A1, “TREATMENT OF MYCOBACTERIAL INFECTION” (priority 2015, published 2018)

What was measured:
[1] = tested on: mCherry-expressing M. bovis BCG; type: cell-based
[2] = tested on: ER/neutral Ca^2+ store; experiment: Cytosolic Ca^2+ / ER Ca^2+ store content probed with ionomycin; type: cell-based
[3] = cited from earlier work; for neurological side effects: adult mice, Andersson et al. 2004; for CNS penetration: mouse, in vivo
[4] = tested on: total ganglioside and GM1 content; details: Kasperzyk et al. 2005; cited from earlier work
[5] = mouse models of GSL storage diseases; cited from earlier work
[6] = tested on: GSL biosynthesis; details: cited from earlier work
[7] = tested on: M. smegmatis; experiment: Clearance of M. smegmatis in RAW 246.7 cells; type: cell-based, Mycobacterium smegmatis; details: RAW 246.7 cells incubated with U18666A (1 μg/ml, 48 hours) prior to infection; relative to untreated cells; FIG. 12
[8] = tested on: M. smegmatis; experiment: Clearance of M. smegmatis in wild-type mouse macrophages; type: cell-based, Mycobacterium smegmatis; details: U18666A-treated wild-type mouse macrophages; FIG. 13
[9] = tested on: M. smegmatis; experiment: Clearance of M. smegmatis in primary human macrophages; type: cell-based, Mycobacterium smegmatis; details: primary human macrophages treated with U18666A; FIG. 14
[10] = tested on: BCG; type: cell-based, M. bovis BCG
[11] = tested on: sarco-endoplasmic reticulum Ca^2+-ATPase (SERCA); details: Bilmen et al. 2001; cited from earlier work
[12] = tested on: GSL levels; details: mice; Platt 1997; cited from earlier work
[13] = tested on: lysosomal expansion/storage; experiment: Lysotracker fluorescence (lysosomal expansion/storage); type: cell-based; details: FIG. 6B
Procedure: Cells were live stained with 50 nM Lysotracker green (Molecular Probes) in PBS at room temperature for 30 min prior to washing.

[14] = tested on: LE/Lys Ca^2+; type: cell-based
[15] = tested on: NPC phenotypes; type: cell-based
[16] = tested on: GSL; type: cell-based
[17] = tested on: NPC1; experiment: TDM on bone marrow-derived macrophages from NPC1 heterozygous mice; type: cell-based, mouse

OC[C@H]1O[C@@H]2O[C@H]3[C@H](O)[C@@H](O)[C@@H](O[C@H]4[C@H](O)[C@@H](O)[C@@H](O[C@H]5[C@H](O)[C@@H](O)[C@@H](O[C@H]6[C@H](O)[C@@H](O)[C@@H](O[C@H]7[C@H](O)[C@@H](O)[C@@H](O[C@H]8[C@H](O)[C@@H](O)[C@@H](O[C@H]1[C@H](O)[C@H]2O)O[C@@H]8CO)O[C@@H]7CO)O[C@@H]6CO)O[C@@H]5CO)O[C@@H]4CO)O[C@@H]3CO [3-cyclodextrin, β-cyclodextrin]
mycobacterial clearance, agent alone [1]: neither of these molecules alone promoted mycobacterial clearance

COc1ccc(/C=C/C(=O)C(C)(C)C(=O)/C=C/c2ccc(OC)c(OC)c2)cc1OC [FLLL31]
BCG clearance [1]: had no effect | effect on cytosolic Ca^2+ levels [2]: has no effect on cytosolic Ca^2+ levels

CCCCN1C[C@H](O)[C@@H](O)[C@@H](O)[C@H]1CO [NB-DGJ, N-butyldeoxygalactonojirimycin]
neurological side effects [3]: not to cause neurological side effects | CNS penetration [3]: penetrate the CNS | total ganglioside and GM1 content in cerebrum-brainstem [4]: marked reduction | tolerability [5]: very well tolerated | inhibition of GSL biosynthesis relative to NB-DNJ [6]: comparably to NB-DNJ

CCN(CC)CCO[C@H]1CC[C@@]2(C)C(=CC[C@@H]3[C@@H]2CC[C@]2(C)C(=O)CC[C@@H]32)C1 [U18666A]
ability to clear non-pathogenic M. smegmatis [7]: impaired ability to clear non-pathogenic M. smegmatis | clearance of M. smegmatis [8]: Impaired clearance of M. smegmatis | clearance of M. smegmatis [9]: Impaired clearance of M. smegmatis

COc1cc(/C=C/C(=O)CC(=O)/C=C/c2ccc(O)c(OC)c2)ccc1O [curcumin]
BCG clearance [1]: promoted BCG clearance | bacterial clearance in cells loaded with the Ca^2+ chelator BAPTA [1]: abrogated | level of infection (average fluorescence intensity of mCherry-expressing BCG) [1]: significantly lower level of infection | mycobacterial burden [10]: significantly reduced mycobacterial burden | effect on cytosolic Ca^2+ levels [2]: raises cytosolic [Ca^2+ ] | Ca^2+ uptake by SERCA [11]: inhibits Ca^2+ uptake

CCCCN1C[C@H](O)[C@@H](O)[C@H](O)[C@H]1CO [miglustat, N-butyldeoxynojirimycin]
mycobacterial clearance, agent alone [1]: neither of these molecules alone promoted mycobacterial clearance | duration of treatment after which the effect on GSL levels stabilizes [12]: 10 days | onset of decrease in GSL levels [12]: measurable decrease in GSL levels within a day of treatment | neurological side effects [3]: not to cause neurological side effects | CNS penetration [3]: penetrate the CNS

glucose monomycolate [GMM from non-pathogenic M. smegmatis]
Lysotracker fluorescence, NPC-like lysosomal expansion/storage [13]: minimal effects

glucose monomycolate [GMM]
Lysotracker fluorescence, NPC-like lysosomal expansion/storage [13]: only modest lysosomal expansion that did not reach statistical significance

trehalose dimycolate [TDM from M. bovis]
LE/Lys Ca^2+ levels [14]: reduced LE/Lys Ca^2+ levels | GM1 trafficking [15]: GM1 mistrafficking | GSL levels [16]: GSL accumulation

trehalose dimycolate [TDM]
Lysotracker fluorescence, NPC-like lysosomal expansion/storage [13]: greatest increase in Lysotracker fluorescence | susceptibility of Npc1+/- macrophages (50% of wild-type NPC1 protein) to inhibition by TDM, versus wild-type [17]: more susceptible to inhibition

trehalose monomycolate [TMM]
Lysotracker fluorescence, NPC-like lysosomal expansion/storage [13]: only modest lysosomal expansion that did not reach statistical significance
